Consider seven compounds from patent US20050053680A1, “Pediculicidal compound” (priority 2002, published 2005).

Series [1] deals with Human lice, Pediculus humanus. The settings on record: in vivo.
For a further series, the system named is Louse eggs. The conditions noted are these: for inhibition of embryo development before eyespot stage (in words): Table 10, Undeveloped; for Number of eggs Half-hatched / Number of eggs Undeveloped: Laurex CS 4.00%, GMS N/SE 2.00%; for Undeveloped % (in brackets, Abbott's correction): corrected; for Undeveloped %: uncorrected; for activity against louse eggs (in words): after correction for hatching failure in the Control Group.

The mark [2] stands for this setting: Table 10, H2O vehicle, Laurex CS 4.00% (163 eggs), GMS N/SE 2.00% (176 eggs).
Setting [3] is: Table 10, IPA/water vehicle, Laurex CS 4.00% (102 eggs), GMS N/SE 2.00% (145 eggs).
Where [4] appears, read: Table 10, IPA/water vehicle, IPA/H2O mix 40.5.

Where two headings read alike, the source gives them in different places.

With `CCCCCCCCCCCCCCCC[N+](C)(C)C.[Cl-]` [Dehyquart ACA, Cetrimonium chloride], in series [1], the “Mortality % (Killed)” value is 20 (10) %, the “Mortality % Total” value is reported as 20 (10) %, the Number of eggs is recorded as 34 and the “Number of lice Killed” value was 2. Besides, the “Number of lice Moribund” value in series [1] was found to be 2.

As for `CCCCCCCCCCCCCCCCCC(=O)OCC(O)CO` (stereo not drawn) [GMS N/SE, Glyceryl stearate], in series [1], the “Number of lice Moribund” value is given as 0 and the “pediculicidal activity (in words)” value is recorded as “showed any activity”. For the same compound, in the series on Louse eggs, the “inhibition of embryo development before eyespot stage (in words)” value is given as “activity to inhibit the development of the embryo”. The “Number of eggs Hatched” value in the series with Louse eggs (setting [2]) is given as 135. In the series on Louse eggs (Table 10, H2O vehicle), the “Number of eggs Half-hatched” value came to 7; the “Number of eggs Undeveloped” value is on record as 27; the “Undeveloped % (in brackets, Abbott's correction)” value worked out at 0%; the Undeveloped % came out at 15.3%. For the same compound, in the series with Louse eggs (setting [3]), the “Number of eggs Hatched” value is 45. In the series on Louse eggs (Table 10, IPA/water vehicle), the “Number of eggs Half-hatched” value came out at 1; the “Number of eggs Undeveloped” value was 93; the “Undeveloped % (in brackets, Abbott's correction)” value came to 39.7%. The compound also came in with an Undeveloped % in the series with Louse eggs (setting [4]) of 64.1%. Besides, in the series with Louse eggs (Table 10), the “activity against louse eggs (in words)” value was “activity could be detected”.

For the compound `CCCCCCCCCCCCCCCCCCO` [Laurex CS, Cetearyl alcohol], in series [1], the “pediculicidal activity (in words)” value is “killed all lice and prevented them from laying any eggs”; the “pediculicidal activity at different time exposures (in words)” value is recorded as “some activity can be demonstrated from 30 minutes application”. Further, the “inhibition of embryo development before eyespot stage (in words)” value with Louse eggs is “activity to inhibit the development of the embryo”. The “Number of eggs Hatched” value in the series with Louse eggs (setting [2]) is recorded as 117. Besides, in the series on Louse eggs (Table 10, H2O vehicle), the “Number of eggs Half-hatched” value is reported as 1; the “Number of eggs Undeveloped” value is given as 34; the “Undeveloped % (in brackets, Abbott's correction)” value was 0%; the Undeveloped % was determined as 20.9%. In addition, the “Number of eggs Hatched” value in the series on Louse eggs (setting [3]) is recorded as 19. Moreover, in the series with Louse eggs (Table 10, IPA/water vehicle), the “Number of eggs Half-hatched” value is listed as 1; the “Number of eggs Undeveloped” value is 70; the “Undeveloped % (in brackets, Abbott's correction)” value is given as 47.2%. Also, the Undeveloped % in the series on Louse eggs (setting [4]) is on record as 68.6%. In addition, the “kill of louse eggs” value in the series on Louse eggs (after correction for Control Group, Table 10) was over 50%. Besides, in the series with Louse eggs (Table 10), the “activity against louse eggs (in words)” value is “activity could be detected”.

For Liquid Paraffin [reference compound], in series [1], the “Mortality % (Killed)” value is given as 100 (100) % and the “Mortality % Total” value is on record as 100 (100) %.

For the compound “Methylparaben & Propylparaben & Ethylparaben [Nipasept]”, in series [1], the “Mortality % (Killed)” value is 20 (15) % and the “Mortality % Total” value is reported as 20 (15) %.

“Thymus Vulgaris (Thyme) extract [Thyme Extract]”: in series [1], the “Mortality % (Killed)” value is 21 (5) % and the “Mortality % Total” value is listed as 21 (5) %.

As to “Urtica Dioica (Nettle) extract [Nettle Extract]”, in series [1], the “Mortality % (Killed)” value was 24 (14) % and the “Mortality % Total” value is reported as 24 (14) %.
